The results in this text go back to patent US11814366B2, “Antiviral compounds and use thereof” (UNIVERSITA DEGLI STUDI DI SIENA, priority 2018, dated 2023).

The EC50 is the midpoint of the concentration-response curve. As usually defined, the EC90 is the concentration needed for an effect of 90%.

One series deals with HIV Strain AD8. Description: HIV-1 inhibition assay, strain NL(AD8), TZM-bl cells, CPRG readout. The series is classed as cell-based.
The nature of the next series: Cytotoxicity, XTT test. To be noted: human. On the technique in general: Tetrazolium assays rely on reduction of a dye to a coloured formazan, in cell work by metabolically active cells.
For the next series, the system named is HIV Strain NL4-3. Description: HIV-1 inhibition assay, strain NL4-3, TZM-bl cells, CPRG readout. The series is classed as cell-based. On the procedure:
The human TZM-bl indicator cell line (obtained from the NIH AIDS reagents program, cat. Nr 8129, www.aidsreagent.org) was maintained at 37° C. and 5% CO2 in Dulbecco's modified Eagle's medium (DMEM) medium containing 10% fetal bovine serum, 50 μg/ml penicillin, and 50 μg/ml streptomycin. The HIV-1 laboratory strains NL (AD8) (NIH AIDS reagents program, cat. Nr, 11346) and NL4.3 (NIH AIDS reagents program, cat. Nr. 114) were titrated as previously reported by Tiberi et al (2014). Briefly, serial 5-fold dilutions of each virus were made in quadruplicate wells in 96-well culture plates, in a total volume of 100 μl of growth medium (DMEM), for a total of 8 dilution steps. Freshly trypsinized cells (20,000 cells in 100 μl of growth medium containing 75 μg/mL DEAE-dextran) were added to each well, and the plates were incubated at 37° C. in a humidified 5% CO2-95% air environment. After 48 h of incubation, the medium was removed and viral infection was quantified using a β-galactosidase (CPRG) assay (Roche). Twenty thousand TZM-bl cells/well were seeded in 96-well plates in complete DMEM supplemented with 30 μg/ml DEAE-dextran (Sigma-Aldrich). Three hundred times the 50% tissue culture infective dose (TCID50)/ml of each strain was pretreated for 1 h at 37° C. with six serial dilutions (10000 nM, 2000 nM, 400 nM, 80 nM, 16 nM, 3.2 nM) and then added to the cells. Vehicle (0.1% dimethyl sulfoxide [DMSO])-treated cells served as a negative control. […] After 2 days, viral infection was quantified using a CPRG assay (Roche cat nr 11379119103). The inhibitory curves were fitted by nonlinear regression, allowing for the calculation of the 50% effective concentration (EC50) using the Prism software. To evaluate the cell toxicity of the compounds, the metabolic XTT [2,3-bis-(2-methoxy-4-nitro-5-sulfophenyl)-2H-tetrazolium-5-carboxanilide] test (Sigma-Aldrich) was performed according to the manufacturer's instructions.

A further series relates to ZIKAV. Description: ZIKA virus plaque reduction assay on Vero cells. The format is cell-based, Zika virus (PRVABC59). The note with it: for SI selectivity index: ZIKAV, CC50 divided by EC50; for EC50 / EC90: Zika virus, Vero, ZIKAV infected cells. Background: Plaques are areas of infected cells; plaque reduction assays count them against a control.
The test system of a further series is HSV-2. Description: HSV-2 plaque reduction assay on Vero cells. The note with it: for SI selectivity index: HSV-2, CC50 divided by EC50; for EC90 / EC50: Human alphaherpesvirus 2, Vero, HSV-2 infected cells; for EC90: 90% effective concentration; for EC50: compound mixed with virus 1 hour at 37° C. The format is cell-based, Herpes 2 virus (HSV-2).
The subject of a further series is H1N1. Put plainly: H1N1 inhibition assay on MDCK cells. The format is cell-based, Influenza virus H1N1. The note with it: for SI selectivity index: H1N1, CC50 divided by EC50; for EC50 / EC90: Influenza A virus, MDCK, H1N1 infected cells; for EC50: read-out: EC50; for EC90: read-out: EC90. How it is done: MDCK cells were pre-plated in 96-well plates. The following day, concentrations of compounds ranging from 50 μM to 0.0001 μM in DMSO were mixed with H1N1 (MOI 0.05 pfu/cell) and incubated for 1 hour at 37° C. The mixtures were subsequently added to the cells for 1 h at 37° C., after a washout, cells were overlaid with MEM for 16 h at 37° C. Cells were then fixed and subjected to specific immunostaining using a Flu A monoclonal antibody (Merck 5001) in order to visualize infected cells. EC50 were calculated by comparing numbers of infected cells in treated and untreated wells. The effective concentration producing 50% reduction in plaque formation (EC50) was determined using Prism software. The selectivity index (SI) was calculated by dividing the CC50 by the EC50 value.

The nature of series [1]: Cell viability (MTS) assay, Huh-7 cells. The note with it: human, conditions of the DENV-2 assay (Table 6). The format is cell-based. On the procedure:
Cell viability was measured using the MITS [3-(4,5-dimethylthiazol-2-yl)-5-(3 carboxy methoxy phenyl)-2-(4-sulfophenyl)-2H-tetrazolium] assay. Cell cultures were seeded in 96-well plates and were incubated with different concentrations of compounds of the invention in triplicate under the same experimental conditions described for the antiviral assays. Cell viability was determined using the CellTiter 96 Proliferation Assay Kit (Promega, Madison, WI, USA) according to the manufacturer's instructions. Absorbances were measured using a Microplate Reader (Model 680, BIORAD) at 490 nm. The effect on cell viability at different concentrations of the compound was expressed as a percentage, by comparing absorbances of treated cells with those of cells incubated with culture medium and equal volumes of vehicle. The 50% cytotoxic concentrations (CC50) and 95% confidence intervals (CIs) were determined using Prism software (Graph-Pad Software, San Diego, CA).

Series [2] is described as follows: in vitro. To be noted: dog.
Series [3] can be described thus: in vitro. To be noted: African green monkey.
The subject of another series is DENV-2. Put plainly: DENV plaque reduction assay on Huh-7 cells. The series is classed as cell-based, Dengue virus. To be noted: for SI selectivity index: DENV-2, CC50 divided by EC50; for EC50: Dengue virus, DENV2, Huh-7, DENV-2 infected cells. How it is done: The effect of compounds on DENV infection was evaluated by plaque reduction assay. Huh-7 cells were pre-plated 24 h in advance in 24-well plates at a density of 10^5 cells. Concentrations of compounds ranging from 50 μM to 0.0001 μM in DMSO were mixed with DENV-2 (MOI 0.01 pfu/cell) and incubated for 1 hour at 37° C. The mixtures were subsequently added to the cells, which were then incubated at 37° C. for 2 h. The virus inoculum was then removed and the cells washed and overlaid with a medium containing 1.2% methylcellulose (Sigma). After further incubation at 37° C. for 72 h cells were fixed and stained with 0.1% crystal violet in 20% ethanol and viral plaques counted. The effective concentration producing 50% reduction in plaque formation (EC50) were determined using Prism software by comparing drug-treated wells with wells treated with medium and DMSO. The selectivity index (SI) was calculated by dividing the CC50 by the EC50 value.

The mark [4] stands for this setting: Human immunodeficiency virus 1, NL43, virus pretreated 1 h at 37° C. with compound.
[5] abbreviates: CC50, conditions of the HSV-2 assay (Table 2).
Where [6] appears, read: CC50, conditions of the ZIKAV assay (Table 3).
Setting [7] is: virus pretreated 1 h at 37° C. with compound.

On to `O=C(O)c1ccc(-c2ccc(/C=C3\SC(=S)N(Cc4ccc(Cl)cc4)C3=O)[nH]2)cc1O` [Compound 7b, (Z)-4-(5-((3-(4-chlorobenzyl)-4-oxo-2-thioxothiazolidin-5-ylidene)methyl)-1H-pyrrol-2-yl)-2-hydroxybenzoic Acid], for which, in the series on HIV Strain AD8 (Human immunodeficiency virus 1, virus pretreated 1 h at 37° C. with compound), the EC50 turned out to be 532 nM. Moreover, in the series “Cytotoxicity, XTT test” (TZM-bl cells), the CC50 was above 20 µM.
Regarding `O=C1NC(=S)N(Cc2ccccc2)C(=O)/C1=C\c1ccc(-c2ccc(C(=O)O)c(O)c2)[nH]1` [Compound 15a, (Z)-4-(5-((1-benzyl-4,6-dioxo-2-thioxotetrahydropyrimidin-5(2H)-ylidene)methyl)-1H-pyrrol-2-yl)-2-hydroxybenzoic Acid], the EC50 in the series with HIV Strain NL4-3 (setting [4]) worked out at 217 nM. This compound yielded a CC50 in “Cytotoxicity, XTT test” above 20 µM.
As for `O=C1NC(=S)N(CCc2ccccc2)C(=O)/C1=C/c1ccc(-c2ccc(-c3nnn[nH]3)cc2)[nH]1` [Compound 15c, (Z)-5-((5-(4-(1H-tetrazol-5-yl)phenyl)-1H-pyrrol-2-yl)methylene)-dihydro-3-henethyl-2-thioxopyrimidine-4,6(1H,5H)-dione], the SI selectivity index with ZIKAV was above 12000; with HSV-2 it was above 1435; with H1N1 it was above 379; with DENV-2 it was 20.6. The EC50 in the series with ZIKAV was found to be 25.8 nM; in the series with HSV-2 it was 210 nM; in the series on H1N1, 793 nM; with DENV-2, 3.4 µM. For the same compound, the EC90 with ZIKAV came to 365 nM; in the series with HSV-2, 0.618 µM; in the series with H1N1, 1.76 µM. In addition, the CC50 in [1] is 70 µM; in “in vitro [2]” it was above 300 µM; in “in vitro [3]” (setting [5]) it was above 300 µM; in the series “in vitro [3]” (setting [6]) it was above 300 µM.
As for `N#Cc1ccc(-c2ccc(/C=C3\C(=O)NC(=S)N(CCc4ccccc4)C3=O)[nH]2)cc1` [Compound 15d, 4-(5-((Z)-(tetrahydro-4,6-dioxo-3-phenethyl-2-thioxopyrimidin-5(6H)-lidene)methyl)-1H-pyrrol-2-yl)benzonitrile], the figures for the SI selectivity index with ZIKAV, with HSV-2 and in the series on H1N1 were above 272.7, above 8.7 and above 12, respectively. Moreover, the results for the EC50 in the series with ZIKAV, in the series on HSV-2 and with H1N1 were 1110 nM, 34500 nM and 25000 nM, respectively. The EC90 in the series on ZIKAV is 26600 nM; in the series with HSV-2 it was 88.2 µM; with H1N1, 372 µM. The CC50 in “in vitro [2]”, in “in vitro [3]” (setting [5]) and in the series “in vitro [3]” (setting [6]) was above 300 µM throughout.
In the case of `O=C1NC(=S)N(CCc2ccc(O)cc2)C(=O)/C1=C\c1ccc(-c2ccc(C(=O)O)c(O)c2)[nH]1` [Compound 15f, (Z)-2-hydroxy-4-(5-((1-(4-hydroxyphenethyl)-4,6-dioxo-2-thioxotetrahydropyrimidin-5(2H)-ylidene)methyl)-1H-pyrrol-2-yl)benzoic Acid], the CC50 in series [1] worked out at 28 µM. For the same compound, in the series on DENV-2, the SI selectivity index is recorded as 3.6 and a half-maximal response (EC50) required 7.8 µM.
As for `O=C1NC(=S)N(Cc2ccccn2)C(=O)/C1=C\c1ccc(-c2ccc(-c3nnn[nH]3)cc2)[nH]1` [Compound 15p, (Z)-5-((5-(4-(1H-tetrazol-5-yl)phenyl)-1H-pyrrol-2-yl)methylene)-1-(pyridin-2-ylmethyl)-2-thioxodihydropyrimidine-4,6(1H,5H)-dione], the CC50 in [1] was 89 µM. For the same compound, in the series with DENV-2, the SI selectivity index worked out at 7.3 and the EC50 is 12.2 µM.
Compound `O=C1NC(=S)NC(=O)C1=Cc1ccc(-c2cc(C(F)(F)F)ccc2Cl)[nH]1` [Compound 17a, 5-((5-(2-chloro-5-(trifluoromethyl)phenyl)-1H-pyrrol-2-yl)methylene)-2-thioxodihydropyrimidine-4,6(1H,5H)-dione] registered a CC50 in “Cytotoxicity, XTT test” above 20 µM.
In the series on HSV-2, `O=C1NC(=S)NC(=O)C1=Cc1ccc(-c2ccc(C(=O)O)c(O)c2)[nH]1` [Compound 17b, 4-(5-((4,6-dioxo-2-thioxotetrahydropyrimidin-5(2H)-ylidene)methyl)-1H-pyrrol-2-yl)-2-hydroxybenzoic Acid] gave an SI selectivity index above 429.8, an EC90 of 7.47 µM and an EC50 of 698 nM. In addition, in the series with HIV Strain NL4-3 (setting [4]), the EC50 came to 160 nM. The compound also registered a CC50 in the series “in vitro [3]” (setting [5]) above 300 µM. In “Cytotoxicity, XTT test”, this compound registered a CC50 above 20 µM.
For the compound `O=C(O)c1ccc(-c2ccc(CC3C(=O)NC(=S)N(CCc4ccccc4)C3=O)[nH]2)cc1O` (stereo not drawn) [Compound 18, 4-(5-((hexahydro-4,6-dioxo-1-phenethyl-2-thioxopyrimidin-5-yl)methyl)-1H-pyrrol-2-yl)-2-hydroxybenzoic Acid], the SI selectivity index in the series with ZIKAV is on record as above 849.8; with HSV-2, above 417.2; with H1N1, above 238. The EC50 in the series with ZIKAV was 35.3 nM; with HSV-2, 712 nM; in the series with H1N1, 1260 nM. Moreover, the EC90 in the series with ZIKAV was 308 nM; in the series on HSV-2 it was 0.128 µM; in the series on H1N1 it was 14.9 µM. The CC50 in the series “in vitro [2]”, in the series “in vitro [3]” (setting [5]) and in the series “in vitro [3]” (setting [6]) was above 300 µM each time.
Take `Cc1nnc(C(=O)NC(C)(C)c2nc(C(=O)NCc3ccc(F)cc3)c(O)c(=O)n2C)o1` [Ral, raltegravir, reference compound]: the EC50 in the series with HIV Strain NL4-3 (setting [4]) was 21 nM. In “Cytotoxicity, XTT test”, this compound had a CC50 above 20 µM.
In the case of maraviroc [reference compound], the EC50 with HIV Strain NL4-3 (setting [7]) was above 20000 nM; in the series with HIV Strain AD8 (setting [7]), 36.7 nM.
